Consider 25 molecules from patent US8969542B2, “HPV polyepitope constructs and uses thereof” (priority 2007, dated 2015).

Where no end group is shown, it is not given here.

Targets include HLA A6801 (Homo sapiens, UniProt P04439, A269V/D185E/E176V/E277Q/E87N/F33Y/G231S/I121M/I166T/I218V/L180W/L300P/L318F/N151K/P208A/P217A/Q86R/R169H/T345S); HLA A1101 (Homo sapiens, UniProt P04439, A114D/D185E/E176A/F33Y/L180Q/S129P/T187R); HLA A3101 (Homo sapiens, UniProt P04439, A270S/D185E/E176V/E277Q/F33T/G231S/G80R/H175R/I121M/I218V/I322F/K168Q/L300P/L318F/M331R/P217A/Q94H/R138Q/T323A/T345S/T97I/V358M); HLA A3301 (Homo sapiens, UniProt P04439, A270S/D185E/E176V/E277Q/E87N/F33T/G231S/H175R/I121M/I218V/I322F/K168Q/K210R/L300P/L318F/M331R/P217A/Q86R/Q94H/R138Q/T323A/T345S/T97I/V358M/Y195H); HLA A3002 (Homo sapiens, UniProt P04439, D101N/D140H/D185E/E176R/F33S/G80R/H175R/K168Q/Q94H/R138E/R41S/V100E); HLA A2902 (Homo sapiens, UniProt P04439, A270S/D101N/D185E/E176V/E277Q/E87Q/F33T/G231S/H175R/I121M/I218V/I322F/K168Q/L300P/L318F/M331R/P208A/P217A/Q86L/T323A/T345S/V100A/V358M); HLA A2402 (Homo sapiens, UniProt P04439, D101N/D140Y/D185E/E176V/E190D/F33S/G103R/G107R/I119L/I121M/I306V/K335N/L105A/L180Q/L300P/N151K/N90K/Q86E/Q94H/R106L/R138H/R89G/T104I/T345S/V100E/W191G/Y123F); HLA A2302 (Homo sapiens, UniProt P04439, D101N/D140Y/D185E/E176V/E190D/F33S/G103R/G107R/H175R/I119L/I121M/I306V/K168Q/K335N/L105A/L180W/L300P/N151K/N90K/P307H/Q86E/Q94H/R106L/R138H/R89G/T104I/T345S/V100E/W191G/Y123F); HLA A0203 (Homo sapiens, UniProt P04439, A173T/D140Y/D185E/D98H/E277Q/G131W/G231S/I119V/I121R/I166T/I218V/L180W/L300P/L318F/N151K/N90K/P208A/P217A/Q86G/Q94H/R138H/R169H/T345S).

Assay in all cases: HLA class I competition binding assay using soluble HLA
Another experiment deals with T1, HLA A0301 (Homo sapiens, UniProt P04439).
T1 construct: endogenous in cells

With `CC[C@H](C)[C@H](N)C(=O)N[C@@H](CO)C(=O)N[C@@H](Cc1ccccc1)C(=O)N[C@@H](C)C(=O)NCC(=O)N[C@H](C(=O)N[C@H](C(=O)N[C@H](C(=O)N[C@@H](CCCCN)C(=O)O)[C@@H](C)O)C(C)C)[C@@H](C)CC` [compound 57], the IC50 (commonly the concentration that gives 50% inhibition) amounted to 16 nM at HLA A6801, 1.6 nM at HLA A1101 and 115 nM on HLA A3101.

In the case of AATKYPLLK [compound 17], the IC50 at HLA A3301 was greater than 20000 nM; at HLA A6801 it was greater than 20000 nM; on HLA A1101 it was 20 nM; at HLA A3101, greater than 20000 nM.

As for ATLQDIVLH [compound 38], the IC50 on HLA A0301 turned out to be 211 nM; on HLA A3101 it was 543 nM.

For AVMCRHYKR [compound 78], the figures for the IC50 at HLA A6801, on HLA A0301 and at HLA A1101 were 29 nM, 311 nM and 38 nM, respectively.

As to DSVYGDTLER [compound 37], the IC50 at HLA A6801 stood at 44 nM; at HLA A0301, 193 nM; at HLA A3101, 246 nM.

As to FYSKVSEFRW [compound 65], the half-maximal inhibitory concentration (IC50) came to 1360 nM on HLA A3002, 1780 nM on HLA A2902, 4.5 nM at HLA A2402 and 8.8 nM on HLA A2302.

HYTNWKFIF [compound 63]: the IC50 was 4850 nM on HLA A3002, 433 nM on HLA A2902, 8.5 nM on HLA A2402 and 16 nM at HLA A2302.

On HLA A0203, KLLEKLLCI [compound 49] returned an IC50 of 2.4 nM.

Turning to KSLFGMSLMK [compound 15], the IC50 stood at 887 nM on HLA A6801, 3.9 nM on HLA A0301 and 230 nM at HLA A3101.

With KVSEFRWYRY [compound 59], the IC50 worked out at 338 nM on HLA A3301, 192 nM at HLA A6801, 213 nM at HLA A0301 and 3 nM at HLA A3101.

In the case of LYGVSFSEL [compound 18], the IC50 is greater than 20000 nM on HLA A3002, greater than 20000 nM on HLA A2902, 3.1 nM on HLA A2402 and 7.2 nM on HLA A2302.

In the case of QVVPAYNISK [compound 35], at HLA A0301, the IC50 is 308 nM.

In the case of RTEVYQFAFR [compound 82], the results for the IC50 on HLA A3301, at HLA A6801 and on HLA A3101 were 696 nM, 439 nM and 8 nM, respectively.

Turning to STAAALYWYK [compound 13], the IC50 at HLA A3301 turned out to be 128 nM.

Molecule STVSVGTAK [compound 34] returned an IC50 at HLA A3301 greater than 20000 nM.

Regarding STWHWTGCNK [compound 80], the IC50 amounted to 428 nM at HLA A3301 and 2.8 nM at HLA A1101.

In the case of SVICFVNSK [compound 16], the IC50 amounted to 51 nM at HLA A3301, 5.4 nM on HLA A6801 and 2.2 nM on HLA A1101.

For SVYGETLEK [compound 83], the IC50 at HLA A6801 stood at 7.2 nM; on HLA A1101, 9.5 nM; at HLA A3101, 6510 nM.

As to VFTFPHAFPF [compound 84], the IC50 at HLA A3002 was greater than 20000 nM; on HLA A2902 it was 57 nM; at HLA A2402 it was 90.4 nM; at HLA A2302 it was 15.9 nM.

Turning to VTTRYPLLR [compound 81], the figures for the IC50 at HLA A3301, at HLA A6801 and at HLA A0301 were greater than 20000 nM, 3150 nM and 158 nM, respectively.

Regarding VYDFAFRDLCI [compound 20], the IC50 at HLA A3002 was greater than 20000 nM; on HLA A2902, greater than 20000 nM; on HLA A2402, 22 nM; on HLA A2302, 8.9 nM.

Consider VYGTTLEKL [compound 66], for which the IC50 on HLA A3002 is 1240 nM; at HLA A2902, greater than 20000 nM; on HLA A2402, 26 nM; on HLA A2302 it was 8.2 nM.

In the case of VYVCAFAWLL [compound 86], the IC50 on HLA A3002 is greater than 20000 nM; at HLA A2902, 2350 nM; on HLA A2402, 8.4 nM; on HLA A2302, 8.1 nM.

Turning to VYVFCFLLPM [compound 43], the concentration for half-maximal inhibition (IC50) at HLA A3002 was greater than 20000 nM; at HLA A2902, 5280 nM; at HLA A2402 it was 178 nM; on HLA A2302 it was 57 nM.

Regarding YYITETGIW [compound 85], the IC50 at HLA A3002 is greater than 20000 nM; on HLA A2902, greater than 20000 nM; on HLA A2402 it was 8.5 nM; on HLA A2302 it was 2 nM.
